Test results from ChEMBL document CHEMBL1152243, “Preliminary SAR studies on non-apamin-displacing 4-(aminomethylaryl)pyrrazolopyrimidine K(Ca) channel blockers” (Bioorg Med Chem Lett, 2008).
Active and inactive are the calls of the source. No cut-off for these calls is given here.

Assays:
Format in all cases: cell-based
[1] = target: T1, Small conductance calcium-activated potassium channel protein 3 (Homo sapiens, UniProt Q9UGI6); assay: Inhibition of Kca2.3 channel expressed in HEK293 cells at 30 uM by thallium flux assay
T1 sequence (Q9UGI6 whole entry): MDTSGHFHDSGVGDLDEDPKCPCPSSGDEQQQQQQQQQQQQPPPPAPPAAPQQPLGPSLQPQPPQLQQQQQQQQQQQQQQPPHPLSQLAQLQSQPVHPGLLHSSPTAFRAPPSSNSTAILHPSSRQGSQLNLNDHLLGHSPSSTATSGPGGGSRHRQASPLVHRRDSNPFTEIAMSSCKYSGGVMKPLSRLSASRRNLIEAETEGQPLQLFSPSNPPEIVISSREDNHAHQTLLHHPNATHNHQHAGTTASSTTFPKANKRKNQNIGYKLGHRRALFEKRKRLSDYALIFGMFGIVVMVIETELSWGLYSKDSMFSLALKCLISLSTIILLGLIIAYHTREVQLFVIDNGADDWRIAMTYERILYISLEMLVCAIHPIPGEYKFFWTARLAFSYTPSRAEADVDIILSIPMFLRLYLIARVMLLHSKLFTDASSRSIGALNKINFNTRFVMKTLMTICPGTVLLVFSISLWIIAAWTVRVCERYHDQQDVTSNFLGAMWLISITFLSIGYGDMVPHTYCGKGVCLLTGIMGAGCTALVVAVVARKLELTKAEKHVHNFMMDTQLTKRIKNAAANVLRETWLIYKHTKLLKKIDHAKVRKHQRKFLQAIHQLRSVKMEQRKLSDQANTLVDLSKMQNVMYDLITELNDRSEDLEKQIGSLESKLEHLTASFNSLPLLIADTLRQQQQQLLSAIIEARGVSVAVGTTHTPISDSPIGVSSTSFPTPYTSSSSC

[2] = target: T1, Small conductance calcium-activated potassium channel protein 3; assay: Inhibition of Kca2.3 channel expressed in HEK293 cells by thallium flux assay
[3] = target: T1, Small conductance calcium-activated potassium channel protein 3; assay: Inhibition of Kca2.3 channel expressed in HEK293 cells by electrophysiology assay
[4] = target: Small conductance calcium-activated potassium channel protein 1 (Homo sapiens, UniProt Q92952); assay: Inhibition of Kca2.1 channel expressed in HEK293 cells by thallium flux assay
Chain of Small conductance calcium-activated potassium channel protein 1 (Q92952 whole entry): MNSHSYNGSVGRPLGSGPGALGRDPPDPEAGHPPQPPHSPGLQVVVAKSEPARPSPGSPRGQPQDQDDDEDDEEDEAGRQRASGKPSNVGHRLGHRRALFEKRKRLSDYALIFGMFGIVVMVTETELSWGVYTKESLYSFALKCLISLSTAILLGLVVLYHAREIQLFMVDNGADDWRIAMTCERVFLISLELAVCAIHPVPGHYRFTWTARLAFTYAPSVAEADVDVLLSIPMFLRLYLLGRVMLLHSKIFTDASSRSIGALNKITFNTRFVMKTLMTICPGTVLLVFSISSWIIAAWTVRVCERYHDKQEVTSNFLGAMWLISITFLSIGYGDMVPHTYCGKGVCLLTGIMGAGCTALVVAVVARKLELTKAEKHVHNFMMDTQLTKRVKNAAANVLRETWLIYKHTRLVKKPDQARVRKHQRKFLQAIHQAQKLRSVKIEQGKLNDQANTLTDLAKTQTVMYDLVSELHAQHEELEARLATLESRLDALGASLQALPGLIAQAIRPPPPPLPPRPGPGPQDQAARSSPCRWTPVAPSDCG

[5] = target: Small conductance calcium-activated potassium channel protein 2 (Homo sapiens, UniProt Q9H2S1); assay: Inhibition of Kca2.2 channel expressed in HEK293 cells by thallium flux assay
Chain of Small conductance calcium-activated potassium channel protein 2 (Q9H2S1 whole entry): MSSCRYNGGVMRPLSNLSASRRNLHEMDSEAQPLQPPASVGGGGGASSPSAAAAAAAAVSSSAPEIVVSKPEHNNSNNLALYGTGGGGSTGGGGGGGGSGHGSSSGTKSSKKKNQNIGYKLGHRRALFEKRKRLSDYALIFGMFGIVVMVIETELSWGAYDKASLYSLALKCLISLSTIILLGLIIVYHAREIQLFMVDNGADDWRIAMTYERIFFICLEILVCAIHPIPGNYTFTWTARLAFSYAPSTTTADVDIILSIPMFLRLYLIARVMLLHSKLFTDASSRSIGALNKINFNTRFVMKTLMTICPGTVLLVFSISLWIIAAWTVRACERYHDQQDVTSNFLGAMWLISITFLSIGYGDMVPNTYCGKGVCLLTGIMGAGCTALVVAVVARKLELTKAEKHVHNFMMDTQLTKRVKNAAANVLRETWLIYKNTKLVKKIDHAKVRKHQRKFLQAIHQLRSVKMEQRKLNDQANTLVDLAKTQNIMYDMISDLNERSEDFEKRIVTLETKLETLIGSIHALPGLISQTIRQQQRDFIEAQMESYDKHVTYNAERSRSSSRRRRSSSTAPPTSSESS

[6] = target: T1, Small conductance calcium-activated potassium channel protein 3; assay: Displacement of [125I]apamin from Kca2.3 channel expressed in HEK293 cells by scintillation proximity assay

Row | SMILES | inhibition [1] [%] | IC50 [2] [µM] | other results
1 | COc1ccccc1CNc1cc(Cl)nc2ccnn12 | 74 | 15.9 | –
2 | O=[N+]([O-])c1ccc(CNc2cc(Cl)nc3ccnn23)cc1 | 25 | > 30 | –
3 | FC(F)(F)c1ccccc1CNc1cc(Cl)nc2ccnn12 | 50 | > 30 | –
4 | Clc1cc(NCc2ccccc2)n2nccc2n1 | 113 | 1.1 | IC50 [3]: 1.6 µM; IC50 [4]: 1.19 µM; IC50 [5]: 1.1 µM
5 | Clc1cc(NCc2cccs2)n2nccc2n1 | 105 | 0.35 | IC50 [3]: 0.58 µM; Activity [6]: inactive; IC50 [4]: 0.3 µM; IC50 [5]: 0.53 µM
6 | C[C@H](Nc1cc(Cl)nc2ccnn12)c1ccccc1 | – | – | Activity [2]: inactive
7 | FC(F)(F)Oc1ccc(CNc2cc(Cl)nc3ccnn23)cc1 | 62 | 15.4 | –
8 | C[C@@H](Nc1cc(Cl)nc2ccnn12)c1ccccc1 | – | 1 | –
9 | FC(F)(F)Oc1cccc(CNc2cc(Cl)nc3ccnn23)c1 | 71 | 11 | –
10 | Clc1cc(NCc2ccncc2)n2nccc2n1 | – | – | Activity [2]: inactive
11 | Clc1cc(NCc2ccc(Oc3ccccc3)cc2)n2nccc2n1 | 23 | > 30 | –
12 | Clc1cc(NC(Cc2ccccc2)c2ccccc2)n2nccc2n1 (stereo unspecified) | – | 7.5 | –
13 | Cc1ccccc1CNc1cc(Cl)nc2ccnn12 | 75 | 14.6 | –
14 | FC(F)(F)c1ccc(CNc2cc(Cl)nc3ccnn23)cc1 | 43 | > 30 | –
15 | FC(F)(F)Oc1ccccc1CNc1cc(Cl)nc2ccnn12 | 87 | 10 | –
16 | FC(F)(F)c1cccc(CNc2cc(Cl)nc3ccnn23)c1 | 80 | 14.6 | –
17 | O=[N+]([O-])c1cccc(CNc2cc(Cl)nc3ccnn23)c1 | 96 | 7.9 | –

Second part, led by results:

Row | inhibition [1] [%] | IC50 [2] [µM] | SMILES | other results
18 | 25 | > 30 | Clc1cc(NCc2ccc(Cl)c(Cl)c2)n2nccc2n1 | –
19 | 46 | > 30 | Cc1ccc(CNc2cc(Cl)nc3ccnn23)cc1 | –
20 | 30 | > 30 | Clc1ccc(CNc2cc(Cl)nc3ccnn23)cc1 | –
21 | 91 | 10.7 | Cc1cccc(CNc2cc(Cl)nc3ccnn23)c1 | –
22 | 113 | 5.2 | Clc1cccc(CNc2cc(Cl)nc3ccnn23)c1 | –
23 | 43 | > 30 | Clc1cc(Cl)cc(CNc2cc(Cl)nc3ccnn23)c1 | –
24 | 62 | 19.1 | Clc1cc(NCc2ccccc2Cl)n2nccc2n1 | –
